Assays:
Format in all cases: cell-based, human
[1] = test system: ESCC tumor cells (No. 0F0064); assay: Effects of different factors added to basic medium BM on proliferation of primary ESCC cells (cell count); details: factor added to BM at concentrations of Table 3; 12 days of culture; FIGS. 1A-1E
Description: (§1) Extracellular matrix gel (Matrigel®) (manufactured by BD Biosciences) was diluted at 1:100 in serum-free DMEM/F12 medium to prepare an extracellular matrix dilution, which was added to a 48-well culture plate with 500 μl/well to completely cover the bottom of the wells of the culture plate. The resultant was let stand for 1 hour in a 37° C. incubator. After 1 hour, the extracellular matrix dilution was removed to provide a Matrigel-coated plate.
Preparation of basic medium (abbreviated as BM): BM was prepared by adding 0.2 vol. % of Primocin (purchased from Invivogen, with a concentration of 50 mg/mL) to the commercial DMEM/F-12 medium to provide a final concentration of 100 μg/mL.
Next, different kinds and concentrations of additive factors (Table 3) were added to the basic medium (BM), so as to prepare culture mediums for ESCC epithelial cells containing different additive components.
The culture mediums with different components were added at a volume of 500 μl/well to 48-well plates which were coated with extracellular matrix gel (Matrigel). ESCC tumor cells (No. 0F0064) isolated from ESCC tissue according to the same method described in Example 1 were inoculated in a Matrigel-coated 48-well culture plate at a cell density of 2×10^4 cells/cm^2. After surface disinfection, the plate was placed in a 37° C., 5% CO2 incubator (purchased from Thermo Fisher), such that equal numbers of freshly isolated ESCC tumor cells (No. 0F0064) were cultured under different medium formulations. The culture mediums were renewed every 4 days after the start of the culture. After 12 days of culture, cell counts were performed. As an experiment control, the basis medium (BM) without any additive was used. The ordinate in each figure represents the ratio of the number of cells obtained after culture in different mediums to the number of cells obtained after culture in basic medium BM. As shown in the figures, the addition of different concentrations of different factors as shown in Table 3 to BM has different effects on cell proliferation.

[2] = test system: primary ESCC tumor cells (No. 0F0061); assay: Effects of removing single factor or combination of factors from FEM on continuous expansion of primary ESCC cells; details: continuous culture, third passage; FIG. 12 and FIG. 13
Description: The culture medium for primary ESCC epithelial cell FEM was prepared in the same method of Example 2. As a control, a basic medium (hereinafter also referred to as “BM”) was prepared using the same method of Example 2. In addition, six other different culture mediums were prepared according to Table 9.
ESCC tissue-originated primary ESCC tumor cells (No. 0F0061) were obtained by using the same method as in Example 1. Then, the primary ESCC tumor cells were inoculated in a Matrigel® (manufactured by BD Biosciences)-coated 24-well plate at a density of 4×10^4 cells/cm^2. 1 mL of the culture medium for primary ESCC epithelial cells (FEM) of the invention was used, which was then placed in a 37° C., 5% CO2 incubator (purchased from Thermo Fisher) for culture.
When the cells in the culture plate grew to cover about 80% of the bottom area, the medium supernatant in the 24-well plate was discarded and 400 μL 0.05% trypsin (purchased from Gibco) was added for cell digestion; the cells were incubated at 37° C. for 10 minutes until the cells were completely digested as observed under the microscope (EVOS M500, Invitrogen); then the digestion was terminated by using 800 μL of DMEM/F12 culture solution containing 5% (v/v) fetal bovine serum, 100 U/mL penicillin, and 100 μg/mL penicillin; the resultant was collected into a 15 mL centrifuge tube and centrifuged at 1500 rpm for 4 minutes, and then the supernatant was discarded. The centrifuged cell sediments were resuspended in the culture medium of the invention and were counted with a flow imaging counter (JIMBIO FIL, Jiangsu Jimbio Technology Co., Ltd.) to obtain the total number of cells. The cells were incubated into another 24-well culture plate coated with extracellular matrix gel at a density of 2×10^4 cells/cm^2 for further culture. The cells were inoculated into the 24-well culture plate coated with extracellular matrix gel at the same density using other seven different mediums for culture.
When the passaged cells grew in the culture plate to cover about 80% of the bottom area of the plate again, the cultured cells were digested, collected and counted according to the above operating method. The cells were inoculated at a density of 2×10^4 cells/cm^2 again and cultured continuously using the respective culture mediums of different compositions.
The following is the formula for calculating the cell population doubling number of primary ESCC epithelial cells under different culture conditions:
Population Doubling (PD)=3.32*log10 (total number of digested cells/the number of cells at initial inoculation), see Chapman et al., Stem Cell Research & Therapy 2014, 5: 60. […]

[3] = test system: ESCC tumor cells (Sample No. 0F0065); assay: Effects of different concentrations of the additive factors in FEM on proliferation of primary ESCC cells; details: factor added back to FEM lacking it; first passage; FIGS. 3A-3H; preferably
Description: as §1, with “plate with 200 μl/well to” for “plate with 500 μl/well to”, “Matrigel-coated plate. […]” for “Matrigel-coated plate.”
ESCC epithelial cells originated from cancer tissue were isolated and obtained from the cancer tissue of an ESCC patient (Sample No. 0F0065) using the same method as in Example 1. Next, ESCC tumor cells originated from cancer tissue were counted with a flow imaging counter (JIMBIO FIL, Jiangsu Jimbio Technology Co., Ltd.) to obtain the total number of cells. […] The centrifuged cell sediments were resuspended in the basic medium BM and were counted with a flow imaging counter (JIMBIO FIL, Jiangsu Jimbio Technology Co., Ltd.) to obtain the total number of cells. […]

Compound	effect on cell proliferation (ratio of number of cells to that in basic medium BM) [1]	proliferation effect of cells after removal of the component from FEM [2]	amount in the culture medium, preferable (proliferation ratio to control well) [3]
CN1C(=O)C(c2c(F)cccc2F)N(C)c2nc(Nc3ccc(S(N)(=O)=O)cc3)ncc21 (stereo not shown) [Compound 1, 4-((7-(2,6-difluorophenyl)-5,8-dimethyl-6-oxo-5,6,7,8-tetrahydropteridin-2-yl)amino)benzsulfamide]	promoting effects on cell proliferation	significantly attenuated	–
Cc1cccc(-c2nn(C(=S)Nc3ccccc3)cc2-c2ccnc3ccccc23)n1 [Compound A83-01]	–	significantly attenuated	–
C[C@@H](N)[C@H]1CC[C@H](C(=O)Nc2ccncc2)CC1 [Compound Y27632, reference compound]	promoting effects on cell proliferation	significantly attenuated	–
Oc1ccc(-c2nc(-c3ccncc3)c(-c3ccc(F)cc3)[nH]2)cc1 [SB202190]	–	significantly attenuated	–
epidermal growth factor: growth factor from Sino Biological (NSDSECPLSHDGYCLHDGVCMYIEALDKYACNCVVGYIGERCQYRDLKWWELR; Epidermal growth factor; UniProt P01133 971-1023, looked up)	promoting effects on cell proliferation	–	–
hepatocyte growth factor: growth factor from Sino Biological	promoting effects on cell proliferation	–	2.5 to 20 ng/mL
insulin-like growth factor 1: growth factor from Sino Biological	promoting effects on cell proliferation	–	–

Source: patent US20230235283A1, “CULTURE MEDIUM FOR ESOPHAGEAL SQUAMOUS CELL CARCINOMA EPITHELIAL CELLS, CULTURE METHOD, AND APPLICATION THEREOF” (PRECEDO PHARMACEUTICALS CO., LTD, priority 2020, published 2023)
